Results from patent US6365621B1, “Remedies or preventives for intractable epilepsy” (Pharmaceutical Co., Ltd., priority 1998, dated 2002).

Assays:
male mouse = settings: peroral; cited from earlier work
[1] = system: kainate-induced amygdala seizures; assay: Local cerebral glucose metabolism during kainate-induced amygdala seizures ([14C]deoxyglucose autoradiography); type: in vivo, rat; set-up: key to Effect on local cerebral glucose metabolism rate: → : no change; →↓ : decreased in a low degree; ↓ : decreased in a moderate degree; ↓↓ : decreased in a high degree; settings: for Local glucose metabolism rate: average ± standard error
Text: [Method for measuring cerebral glucose metabolism] Cannulas for injection of kainic acid were inserted in an assigned position of the left side of the amygdala of 18 Wistar male rats and fixed through the same procedure as described in Example I-1. Seven days after operation, polyethylene catheters were set and fixed to the femoral artery and vein of one side under halothane anesthesion, and the lower half of the body of each rat were put in plaster so as to prevent removal of the catheter. Upon awakening from narcotism, the same kainic acid solution as described in I-1 (1 μL) was injected through the cannula so as to induce seizures. After elapse of 90 minutes from injection of kainic acid, when limbic system seizures were in status epilepticus, 50, 100, or 200 mg/kg of nefiracetam was intravenously injected, whereas saline was injected into rats of the control group. After 60 minutes, 25 μCi of [^14C] deoxyglucose was intravenously injected. After the tracer was injected, blood was continuously collected from the artery for 45 minutes. When collection was finished, heads were cut off. Brains were extirpated immediately and instantly frozen in by hexane (−25° C.) cooled by dry ice. The frozen brain was sliced in a cryostat (−20° C.) so as to produce coronary, serial-frozen sections having a thickness of 20 μm. Subsequently, the sections were dried and put on high-speed X-ray film with a [^14C] standard, followed by seven-day-exposure in a cassette to thereby obtain an autoradiogram. The blood samples collected from the artery were centrifuged so as to collect plasma, the [^14C] radioactivity was measured by use of a liquid scintillation counter, and glucose concentration in plasma was measured.
The optical density of the intracerebral structure of each section was measured from the autoradiogram by use of a densitometer, and a glucose utilization rate of each intracerabral structure was calculated by use of the formula of Sokoloff (Sokoloff, L., Reivich, M., Kennedy, C., et al., J. Neurochemistry, 28: 897-916, 1977) based on [^14C] radioactivity and glucose concentration in plasma. The obtained data were compared quantitatively and statistically with those of the control group, through the Mann-Whitney U-test.

[2] = Amygdala, focal side, 100 mg/kg i.v.
[3] = Amygdala, non-focal side, 100 mg/kg i.v.
[4] = Brain stem reticular formation, focal side, 100 mg/kg i.v.
[5] = Brain stem reticular formation, non-focal side, 100 mg/kg i.v.
[6] = Candatum-putamen, focal side, 100 mg/kg i.v.
[7] = Candatum-putamen, non-focal side, 100 mg/kg i.v.
[8] = Cerebellar cortex, focal side, 100 mg/kg i.v.
[9] = Cerebellar cortex, non-focal side, 100 mg/kg i.v.
[10] = Corpus callosum, focal side, 100 mg/kg i.v.
[11] = Corpus callosum, non-focal side, 100 mg/kg i.v.
[12] = Frontal lobe cortex, focal side, 100 mg/kg i.v.
[13] = Frontal lobe cortex, non-focal side, 100 mg/kg i.v.
[14] = Hypothalamaus, focal side, 100 mg/kg i.v.
[15] = Hypothalamaus, non-focal side, 100 mg/kg i.v.
[16] = Occipital lobe cortex, focal side, 100 mg/kg i.v.

## Cc1cccc(C)c1NC(=O)CN1CCCC1=O [nefiracetam, N-(2,6-dimethylphenyl)-2-(2-oxo-1-pyrrolidinyl)acetamide]
Male mouse
  acute toxicity: 2,005 mg/kg
[1]; 200 mg/kg i.v.
  Regions with promoted glucose metabolism: the amygdala on the focal side is the only region where the metabolism is prompted
[1]; Amygdala, focal side, 50 mg/kg i.v.
  Effect on local cerebral glucose metabolism rate: →
[1]; [2]
  Effect on local cerebral glucose metabolism rate: →
  Local glucose metabolism rate: 201 ± 4.5 µmol/100 g/min
[1]; Amygdala, focal side, 200 mg/kg i.v.
  Effect on local cerebral glucose metabolism rate: ↓
[1]; Amygdala, non-focal side, 50 mg/kg i.v.
  Effect on local cerebral glucose metabolism rate: →
[1]; [3]
  Effect on local cerebral glucose metabolism rate: ↓↓
  Local glucose metabolism rate: 66.2 ± 3.8 µmol/100 g/min
[1]; Amygdala, non-focal side, 200 mg/kg i.v.
  Effect on local cerebral glucose metabolism rate: ↓↓
[1]; Brain stem reticular formation, focal side, 50 mg/kg i.v.
  Effect on local cerebral glucose metabolism rate: →
[1]; [4]
  Effect on local cerebral glucose metabolism rate: →↓
  Local glucose metabolism rate: 52.9 ± 3.5 µmol/100 g/min
[1]; Brain stem reticular formation, focal side, 200 mg/kg i.v.
  Effect on local cerebral glucose metabolism rate: ↓
[1]; Brain stem reticular formation, non-focal side, 50 mg/kg i.v.
  Effect on local cerebral glucose metabolism rate: →
[1]; [5]
  Effect on local cerebral glucose metabolism rate: ↓
  Local glucose metabolism rate: 49.6 ± 3.3 µmol/100 g/min
[1]; Brain stem reticular formation, non-focal side, 200 mg/kg i.v.
  Effect on local cerebral glucose metabolism rate: ↓
[1]; Candatum-putamen, focal side, 50 mg/kg i.v.
  Effect on local cerebral glucose metabolism rate: →
[1]; [6]
  Effect on local cerebral glucose metabolism rate: →
  Local glucose metabolism rate: 207 ± 16.5 µmol/100 g/min
[1]; Candatum-putamen, focal side, 200 mg/kg i.v.
  Effect on local cerebral glucose metabolism rate: ↓
[1]; Candatum-putamen, non-focal side, 50 mg/kg i.v.
  Effect on local cerebral glucose metabolism rate: →↓
[1]; [7]
  Effect on local cerebral glucose metabolism rate: ↓↓
  Local glucose metabolism rate: 73.1 ± 2.5 µmol/100 g/min
[1]; Candatum-putamen, non-focal side, 200 mg/kg i.v.
  Effect on local cerebral glucose metabolism rate: ↓↓
[1]; Cerebellar cortex, focal side, 50 mg/kg i.v.
  Effect on local cerebral glucose metabolism rate: →
[1]; [8]
  Effect on local cerebral glucose metabolism rate: →
  Local glucose metabolism rate: 47.2 ± 2.5 µmol/100 g/min
[1]; Cerebellar cortex, focal side, 200 mg/kg i.v.
  Effect on local cerebral glucose metabolism rate: →
[1]; Cerebellar cortex, non-focal side, 50 mg/kg i.v.
  Effect on local cerebral glucose metabolism rate: →
[1]; [9]
  Effect on local cerebral glucose metabolism rate: ↓
  Local glucose metabolism rate: 46.1 ± 2.1 µmol/100 g/min
[1]; Cerebellar cortex, non-focal side, 200 mg/kg i.v.
  Effect on local cerebral glucose metabolism rate: →
[1]; Corpus callosum, focal side, 50 mg/kg i.v.
  Effect on local cerebral glucose metabolism rate: →
[1]; [10]
  Effect on local cerebral glucose metabolism rate: →
  Local glucose metabolism rate: 21.9 ± 1.1 µmol/100 g/min
[1]; Corpus callosum, focal side, 200 mg/kg i.v.
  Effect on local cerebral glucose metabolism rate: →
[1]; Corpus callosum, non-focal side, 50 mg/kg i.v.
  Effect on local cerebral glucose metabolism rate: →
[1]; [11]
  Effect on local cerebral glucose metabolism rate: →
  Local glucose metabolism rate: 21.1 ± 1.1 µmol/100 g/min
[1]; Corpus callosum, non-focal side, 200 mg/kg i.v.
  Effect on local cerebral glucose metabolism rate: →
[1]; Frontal lobe cortex, focal side, 50 mg/kg i.v.
  Effect on local cerebral glucose metabolism rate: →
[1]; [12]
  Effect on local cerebral glucose metabolism rate: ↓
  Local glucose metabolism rate: 81.8 ± 5.7 µmol/100 g/min
[1]; Frontal lobe cortex, focal side, 200 mg/kg i.v.
  Effect on local cerebral glucose metabolism rate: ↓
[1]; Frontal lobe cortex, non-focal side, 50 mg/kg i.v.
  Effect on local cerebral glucose metabolism rate: →
[1]; [13]
  Effect on local cerebral glucose metabolism rate: ↓
  Local glucose metabolism rate: 65.7 ± 3.6 µmol/100 g/min
[1]; Frontal lobe cortex, non-focal side, 200 mg/kg i.v.
  Effect on local cerebral glucose metabolism rate: ↓
[1]; Hypothalamaus, focal side, 50 mg/kg i.v.
  Effect on local cerebral glucose metabolism rate: →
[1]; [14]
  Effect on local cerebral glucose metabolism rate: ↓
  Local glucose metabolism rate: 70.6 ± 4.7 µmol/100 g/min
[1]; Hypothalamaus, focal side, 200 mg/kg i.v.
  Effect on local cerebral glucose metabolism rate: ↓
[1]; Hypothalamaus, non-focal side, 50 mg/kg i.v.
  Effect on local cerebral glucose metabolism rate: →
[1]; [15]
  Effect on local cerebral glucose metabolism rate: →↓
  Local glucose metabolism rate: 58.5 ± 4.5 µmol/100 g/min
[1]; Hypothalamaus, non-focal side, 200 mg/kg i.v.
  Effect on local cerebral glucose metabolism rate: ↓
[1]; Occipital lobe cortex, focal side, 50 mg/kg i.v.
  Effect on local cerebral glucose metabolism rate: →
[1]; [16]
  Effect on local cerebral glucose metabolism rate: →↓
  Local glucose metabolism rate: 139 ± 5.6 µmol/100 g/min
